Laboratory results as given in patent US11040947B2, “Substituted quinazolines as matrix metalloproteinase-9 hemopexin domain inhibitors” (The Research Foundation for The State University of New York, priority 2017, dated 2021).

Legend:
[1] = tested on: EGFR^Tyr1068, AKT^Ser473, Erk1/2^Thr202/Tyr204 phosphorylation; assay: phosphorylation of EGFR and downstream targets in HT1080 cells; assay type: cell-based, Human; details: 50 μM overnight
[2] = tested on: proMMP-2-mediated migration of COS-1 cells; assay: two-dimensional dot migration assay, COS-1 cells stably expressing proMMP-2; assay type: cell-based
Experimental: (§1) To test whether compound 3c is specific for inhibiting only proMMP9-mediated migration, a two-dimensional dot migration assay was performed using COS-1 cells engineered to stably express vector control pQCXIP, proMMP-2, proMMP-9, or proMMP-14 cDNA vectors. An immunoblot was performed to confirm protein expression and proper localization of each MMP (MMP-2/-9 are secreted while MMP-14 is membrane bound).

[3] = tested on: proMMP9-mediated migration of COS-1 cells; assay: two-dimensional dot migration assay, COS-1 cells stably expressing proMMP-9; assay type: cell-based
Experimental: as §1

[4] = tested on: COS-1 cells stably expressing vector control or proMMP-9; assay: acute cytotoxicity in COS-1 cells; assay type: cell-based; details: 50 μM, 24 hours, non-statistically significant
Experimental: Compound 3c was evaluated for acute cytotoxicity. COS-1 cells stably expressing either vector control or proMMP-9 cDNA were treated with 50 μM 3c for 24 hours. As negative and positive controls, cells were treated with DMSO alone or 100 nM staurosporine (STS), an apoptosis inducer, respectively. […] A non-statistically significant 8% decrease in cell growth occurred after treatment with 50 μM of compound 3c. These experiments were repeated in endogenous MMP-9 expressing HT1080 fibrosarcoma cells, which were analyzed for chronic toxicity (cells were re-treated every three days for a total of nine days).

[5] = tested on: proMMP-9/MMP-2PEX chimera; assay: tryptophan fluorescence titration with chimera; assay type: binding
Experimental: A blue shift in proMMP-9 tryptophan fluorescence was monitored to determine the binding affinity of all compounds. Binding of a test compound to MMP-9 was assayed by observing the change of tryptophan emission upon binding. Purified recombinant MMP-9 (50 nmol/L) or MMP-9/MMP-2PEX (50 nmol/L) was diluted in buffer (50 mmol/L Tris-HCl, 60 mmol/L KCl, and 0.05% Tween 20, pH 7.4) in the presence or absence of the test compound. As a control for protein stability and loss, an analogous buffer solution was added to the protein. The protein sample was excited at 280 nm and emission scans were collected from 290 to 400 nm, using slit widths of 0.3 nm on a QM 4/200SE spectrofluorimeter with double excitation and emission monochromators. Three emission scans were collected and averaged at each concentration. The Kd was determined using the Prism software package (GraphPad V5) to fit the data to Equation (Δ). λmax=(λmax^∞×[2])/(Kd+[2]) (A) in which λmax is the wavelength at which maximal fluorescence of the protein was observed.
A chimera of proMMP-9 and MMP-2 in which the MMP-9 PEX domain was replaced by that of MMP-2, (proMMP-9/MMP-2PEX) was tested for analog binding.

Q: `O=C(CCCSc1nc2c(c(=O)[nH]1)CCCC2)Nc1ccc(F)cc1` [Compound 3c, N-(4-Fluorophenyl)-4-(4-oxo-3,4,5,6,7,8-hexahydroquinazolin-2-ylthio)butanamide] was tested. Which “phosphorylation of EGFR^Tyr1068 and downstream targets AKT^Ser473 and Erk1/2^Thr202/Tyr204” value [1] did it give?
A: Its value is “reduced phosphorylation”.

Q: And the “inhibition of proMMP-2-mediated migration” value [2]?
A: The value was “only inhibited proMMP9-mediated migration”.

Q: And the “effectiveness at inhibiting migration compared with 1a” value [3]?
A: Its value is “significantly more effective at inhibiting migration”.

Q: What about the “inhibition of proMMP-9-mediated migration” value [3] of the same molecule?
A: The value was “only inhibited proMMP9-mediated migration”.

Q: What about the “decrease in cell growth” value [4] of the same molecule?
A: Its value is 8%.

Q: What about the “shift in fluorescence upon titration with chimera” value [5] of the same molecule?
A: Its value is “no shift in fluorescence was observed”.
